Data set [1] can be described thus: Hydrodynamic diameter and colloidal stability of aggregates by dynamic light scattering. The class given is physicochemical. Conditions: for mean size (hydrodynamic diameter) / zeta potential: 37 °C; for PDI: sd^2/mean size^2. The protocol: In contrary, all spectra gave a hypsochromic shift and loss of fine-structure when the DMSO solutions were diluted with PBS, which refers to the formation of H-type (card-pack) aggregates (Figures S1–S12). Since DMSO-containing aqueous systems are more suitable for biological studies, we examined these solution by dynamic light scattering (DLS) spectroscopy to gain more information about the particles. The concentrations of the examined solutions were the same as used in the ABTS/TEAC measurements (0.3125–5.00 μM, see next section).
Size determination of aggregates and the colloidal stability of the sample dispersions were determined by dynamic light scattering measurements, where the hydrodynamic diameter of particles, and zeta potential values were collected. The number-weighted size distribution indicated one main peak in each case, the polydispersity index (PDI) was calculated as sd^2/mean size^2. For the particle size analysis Malvern Zetasizer Nano S instrument and for the zeta potential determination Malvern Zetasizer Nano Z instrument were used (Malvern Panalytical Ltd., Great Malvern, Worcestershire, UK). The measurements were carried out in autocorrelation mode, and the following parameters were kept constant: scattering angle 173°, attenuator 11 and its factor 0.0146, measurement position 4.65 mm. The concentrations of sample dispersions were between 0.3125 and 5 µM. The dispersion medium was PBS. Each samples was examined after 6 min incubation period at 37 °C.

Data set [2] in a line: TEAC assay using ABTS radical. Conditions: 6 min, ratio of slopes to trolox (melatonin dissolved in EtOH); for TEAC from DMSO: stock in DMSO diluted with PBS pH 7.4, 37 °C; for TEAC from THF: stock in THF diluted with PBS pH 7.4, 37 °C. How it is done:
This method uses a redox reaction between ABTS^•+ radical cation and the examined antioxidants, which act as the reducing agents. […] As the carotenoids and the conjugates are poorly soluble in water, they were dissolved first either in small amounts of freshly distilled tetrahydrofuran (THF) or in dimethylsulfoxide (DMSO), and these stock solutions were diluted with phosphate-buffered saline (PBS) to the final nominal concentration.
The TEAC values were determined in isotonic phosphate buffer of pH 7.4. The buffer solution was made by dissolving 9.55 g of DPBS powder in distilled water to form 1L of solution (composition: 0.138 M NaCl, 0.0027 M KCl, 0.0081 M Na2HPO4, 0.0015 M KH2PO4). The assay was performed according to a literature process with slight modifications. The ABTS^•+ radical cation was produced by reacting 7 mM 2,2′-azino-bis(3-ethylbenzothiazoline-6-sulfonic acid) and 2.45 mM potassium persulfate in water. The stock ABTS^•+ solution was prepared 12–16 h before the experiments, and stored at room temperature in dark. The absorbance of the ABTS^•+ solution was set to 0.70 ± 0.05 at 734 nm by a ca. 100-fold dilution with phosphate-buffered saline (PBS). […] The stock solutions were diluted with PBS such that equal amounts of the diluted solutions were added to the ABTS^•+ reagent to obtain final antioxidants concentrations of 0.3125, 0.625, 1.25, 2.50, 3.75, 5 μM, respectively. In the blank (0 μM), the solutions of the antioxidants were substituted with THF or DMSO.
The antioxidants were incubated with ABTS^•+ solution at 37 °C for 6 min. During the reaction of ABTS^•+ with the antioxidants the absorbance of the solution decreases. The percentage inhibition of absorbance at 734 nm was calculated as (A0 − Aantioxidant)/A0, where A0 is the absorbance of the ABTS^•+ solution and Aantioxidant is the absorbance measured after the addition of the antioxidant. The determinations were carried out at each concentration in triplicate. The calculated values were plotted against the final concentration of the antioxidants. The slopes of the curves were compared with that for trolox, the TEAC value is the ratio of the slopes for the antioxidant and for trolox.

Data set [3] in a line: FRAP assay for the antioxidant capacity. Also noted: key to FRAP: slope of concentration-absorbance line divided by Trolox slope. Conditions: stock in THF, acetate buffer pH 3.0, 37 °C, 15 min; ratio of slopes to trolox (melatonin in EtOH). How it is done:
In the FRAP method the antioxidant reduces Fe^3+ to Fe^2+ in an acidic medium. These experiments were performed in an acetate buffer of pH 3.0, the stock solutions of the examined antioxidants were prepared in THF. The antioxidant capacities were compared to that of Trolox as a standard, just like in the ABTS assays.
A modified literature process was used. The FRAP reagent should also be prepared freshly each day. 2,4,6-Tris(2-pyridyl)-s-triazin (TPTZ) was dissolved in a 200 mM HCl solution and diluted with water to get a final 40 mM HCl and 10 mM TPTZ concentration. For the preparation of the FRAP reagent 30 mL of 20 mM FeCl3 solution and 30 mL of 10 mM TPTZ solution were mixed, and 300 mL of 300 mM acetate buffer with pH 3.0 was added (a pH lower than usual was used to avoid the precipitation of the TPTZ). The FRAP reagent was incubated at 37 °C for 15 min. 150 μL of antioxidant dissolved in THF was mixed with 2.85 mL FRAP reagent solution, and incubated at 37 °C for 15 min in dark. Measurements were carried out at each antioxidant concentration (0, 7.5; 10; 12.5; 15; 17.5 μM final concentration) in triplicate. In the 0 μM solution the antioxidant solution was substituted with acetate buffer (pH 3.0). The FRAP was determined at 600 nm: the absorbance values were plotted as a function of concentration of the sample compounds and that of Trolox for the standard reference data. The FRAP values were calculated as in the ABTS assays, i.e., the slope of the concentration-absorbance lines for the carotenoid derivatives was divided by that for the trolox.

Data set [4] is described as follows: Study of aggregation by UV-Vis spectrophotometry. Conditions: for type of aggregates formed: from THF:aqueous solutions; for change of UV spectrum with increasing ratio of PBS: starting from THF solutions. The class given is physicochemical. From the text:
It has been known for a long while that carotenoids or their derivatives can be prone to supramolecular organization in water or water-organic solvent mixtures. This behaviour is especially interesting because this higher organization can modulate or alter biological properties of carotenoids, as well [40]. A tendency to form supramolecular structures can be tested by recording the UV spectra in an organic solvent and increasing the ratio of water in the sample. […] We have some recent experience of such behaviour of carotenoid-flavonoid conjugates.
All of our adducts were tested with the method above using tetrahydrofurane (THF) or dimethylsulfoxide (DMSO) with increasing ratio of phosphate-buffered saline (PBS), which was the medium of the antioxidant measurements. […]
1. Study of Aggregation by UV-Vis Spectrophotometry
Starting from THF solutions: each conjugate was dissolved in freshly distilled THF and the solutions were diluted
either with THF or THF-PBS mixtures to obain final solutions of identical carotenoid concentration. […]
Figure S1. UV-spectra of 8’-apo-β-carotenol succinate ( 6) ( a) in THF and in THF-PBS mixtures ( 1:1 , 1:3); (b) in DMSO
Figure S2. UV-spectra of zeaxanthin bissuccinate ( 7) ( a) in THF and in THF-PBS mixtures ( 1:1 , 1:3); (b) in DMSO and
Figure S3. UV-spectra of zeaxanthin monosuccinate ( 11) ( a) in THF and in THF-PBS mixtures ( 1:1 , 1:3); (b) in DMSO […]

The mark [5] stands for this setting: 0.3125 μM in PBS from DMSO stock.
Setting [6] is: 0.625 μM in PBS from DMSO stock.

As a reminder, the melting point is the temperature, or range, at which the solid turns liquid.

Consider `COc1ccc2[nH]cc(CCNC(=O)CNC(=O)CCC(=O)O[C@@H]3CC(C)=C(/C=C/C(C)=C/C=C/C(C)=C/C=C/C=C(C)/C=C/C=C(C)/C=C/C4=C(C)C[C@@H](OC(=O)CCC(=O)NCC(=O)NCCc5c[nH]c6ccc(OC)cc56)CC4(C)C)C(C)(C)C3)c2c1` [Compound 14, Zeaxanthin-bismelatonin conjugate], for which the melting point fell in the range of 149 to 150 °C. In data set [1] (setting [5]), the “mean size (hydrodynamic diameter)” value is given as “too large for DLS” and the zeta potential is −0.7 mV. Also, in data set [1] (setting [6]), the “mean size (hydrodynamic diameter)” value is “too large for DLS” and the zeta potential was −0.7 mV. In data set [1] (1.25 μM in PBS from DMSO stock), the “mean size (hydrodynamic diameter)” value is “too large for DLS” and the zeta potential is reported as −1.0 mV. For the same compound, in data set [1] (2.5 μM in PBS from DMSO stock), the “mean size (hydrodynamic diameter)” value was found to be 137.50 nm and the zeta potential was −0.4 mV. This compound yielded a PDI in data set [1] (2.5 μM in PBS) of 0.0147. Moreover, in data set [1] (3.75 μM in PBS from DMSO stock), the “mean size (hydrodynamic diameter)” value is 91.77 nm and the zeta potential is on record as −0.2 mV. This compound also registered a PDI in data set [1] (3.75 μM in PBS) of 0.0108. Also, in data set [1] (5 μM in PBS from DMSO stock), the “mean size (hydrodynamic diameter)” value is 705.10 nm and the zeta potential was determined as 0.0 mV. Moreover, in data set [1] (5 μM in PBS), the PDI came out at 0.0659. Besides, in data set [2], the “TEAC from DMSO” value worked out at 2.79 and the “TEAC from THF” value worked out at 2.080. For the same compound, the FRAP in data set [3] is given as 0.206. Moreover, in data set [4], the “type of aggregates formed” value is given as “J-type (head-to-tail) aggregates” and the “change of UV spectrum with increasing ratio of PBS” value is recorded as “bathochromic shift”.

For the compound `COc1ccc2[nH]cc(CCNC(=O)CNC(=O)CCC(=O)O[C@@H]3CC(C)=C(/C=C/C(C)=C/C=C/C(C)=C/C=C/C=C(C)/C=C/C=C(C)/C=C/C4=C(C)CCCC4(C)C)C(C)(C)C3)c2c1` [Compound 15, Cryptoxanthin-melatonin conjugate], the melting point fell in the range of 153 to 154 °C. Moreover, in data set [1] (setting [5]), the “mean size (hydrodynamic diameter)” value is given as 29.79 nm and the zeta potential is reported as −13.4 mV. In data set [1] (0.3125 μM in PBS), the PDI came out at 0.0356. In data set [1] (setting [6]), the “mean size (hydrodynamic diameter)” value is 31.22 nm and the zeta potential is −23.5 mV. For the same compound, the PDI in data set [1] (0.625 μM in PBS) is given as 0.1230. In data set [1] (1.25 μM in PBS from DMSO stock), the “mean size (hydrodynamic diameter)” value was 74.91 nm and the zeta potential was −20.8 mV. The PDI in data set [1] (1.25 μM in PBS) is on record as 0.1051. Also, in data set [1] (2.5 μM in PBS from DMSO stock), the “mean size (hydrodynamic diameter)” value stood at 305.10 nm and the zeta potential was −20.4 mV. For the same compound, the PDI in data set [1] (2.5 μM in PBS) was 0.1649. In addition, in data set [1] (3.75 μM in PBS from DMSO stock), the “mean size (hydrodynamic diameter)” value is on record as 826.80 nm and the zeta potential was −11.8 mV. In data set [1] (3.75 μM in PBS), this compound showed a PDI of 0.0840. Further, in data set [1] (5 μM in PBS from DMSO stock), the “mean size (hydrodynamic diameter)” value was 615.10 nm and the zeta potential is reported as −15.7 mV. Also, the PDI in data set [1] (5 μM in PBS) came out at 0.0992. The “TEAC from THF” value in data set [2] worked out at 1.777. In addition, the FRAP in data set [3] turned out to be 0.154. In data set [4], the “type of aggregates formed” value is given as “J-type (head-to-tail) aggregates” and the “change of UV spectrum with increasing ratio of PBS” value is on record as “bathochromic shift”.

With `COc1ccc2[nH]cc(CCNC(=O)CNC(=O)CCC(=O)O[C@@H]3CC(C)=C(/C=C/C(C)=C/C=C/C(C)=C/C=C/C=C(C)/C=C/C=C(C)/C=C/C4C(C)=C[C@@H](OC(=O)CCC(=O)NCC(=O)NCCc5c[nH]c6ccc(OC)cc56)CC4(C)C)C(C)(C)C3)c2c1` (some centres unmarked) [Compound 16, Lutein-bismelatonin conjugate], the melting point was in the range of 123 to 124 °C. Besides, in data set [1] (setting [5]), the “mean size (hydrodynamic diameter)” value came out at 131.20 nm and the zeta potential is listed as −12.2 mV. Further, in data set [1] (0.3125 μM in PBS), the PDI came to 0.2022. In data set [1] (setting [6]), the “mean size (hydrodynamic diameter)” value is given as 51.10 nm and the zeta potential is listed as −11.7 mV. In addition, the PDI in data set [1] (0.625 μM in PBS) was determined as 0.0673. In addition, in data set [1] (1.25 μM in PBS from DMSO stock), the “mean size (hydrodynamic diameter)” value came out at 142.50 nm and the zeta potential is recorded as −12.5 mV. This compound showed a PDI in data set [1] (1.25 μM in PBS) of 0.0108. In addition, in data set [1] (2.5 μM in PBS from DMSO stock), the “mean size (hydrodynamic diameter)” value is 91.19 nm and the zeta potential was −27.5 mV. Moreover, in data set [1] (2.5 μM in PBS), the PDI came to 0.1585. In data set [1] (3.75 μM in PBS from DMSO stock), the “mean size (hydrodynamic diameter)” value was determined as 39.28 nm and the zeta potential is −1.4 mV. The PDI in data set [1] (3.75 μM in PBS) is 0.1229. In addition, in data set [1] (5 μM in PBS from DMSO stock), the “mean size (hydrodynamic diameter)” value was 43.14 nm and the zeta potential was −0.5 mV. In addition, the PDI in data set [1] (5 μM in PBS) stood at 0.0264. In data set [2], the “TEAC from DMSO” value worked out at 2.40 and the “TEAC from THF” value worked out at 2.933. Besides, the FRAP in data set [3] was 0.460. Also, in data set [4], the “type of aggregates formed” value is listed as “J-type (head-to-tail) aggregates” and the “change of UV spectrum with increasing ratio of PBS” value was “bathochromic shift”.

The record behind these values is article PMC9369794 (Molecules, 2022).
